In paper PMC3144219, “Identification of Inhibitors against Mycobacterium tuberculosis Thiamin Phosphate Synthase, an Important Target for the Development of Anti-TB Drugs” (PLoS ONE, 2011):
≈ marks a conversion by molar mass, not a printed value. Like-named read-outs stand apart in the source and are kept apart here.

Experiments:
[1] = target: T1, M.tuberculosis thiamin phosphate synthase (MtTPS) (Mycobacterium tuberculosis, UniProt P9WG75)
M.tuberculosis H37Rv = assay: MIC99 determination in broth culture with CFU plating; assay type: cell-based; details: 7 days, 99% inhibition of growth; for MIC99: Mycobacterium tuberculosis, H37RV, 168 h
[2] = target: T1, M.tuberculosis thiamin phosphate synthase (MtTPS); assay: biochemical; details: for inhibition at 100 µg/mL: read-out: percent inhibition of MtTPS activity
M.smegmatis mc^2155 = assay: MIC99 determination, broth macrodilution with CFU plating; assay type: cell-based; details: for inhibition of M.smegmatis growth: at (up to) 750 µg/ml; for MIC99 for M.smegmatis: 24 hours, 99% inhibition of growth
Cc1ncsc1CCO = assay: purified protein, by the assay type; details: pH 7.5; 37.0 °C

T1 sequence (P9WG75 whole entry, looked up): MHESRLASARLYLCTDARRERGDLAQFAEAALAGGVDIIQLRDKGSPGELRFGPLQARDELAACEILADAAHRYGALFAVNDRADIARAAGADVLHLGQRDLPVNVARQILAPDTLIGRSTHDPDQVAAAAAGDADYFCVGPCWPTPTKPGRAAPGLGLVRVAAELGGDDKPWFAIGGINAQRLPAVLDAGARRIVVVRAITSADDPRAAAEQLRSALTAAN

Cc1cc(O)c(C(C)C)cc1N=Cc1cc([N+](=O)[O-])ccc1O [Compound 9, 4-{[(2-hydroxy-5-nitrophenyl)methylidene]amino}-5-methyl-2-(propan-2-yl)phenol]
mode of inhibition of MtTPS [1]: competing with HMP-PP | MIC99 (M.tuberculosis H37Rv): 6 µg/mL (≈ 19.1 µM) | IC50 [2]: 108 µM | inhibition at 100 µg/mL [2]: > 20% | inhibition of M.smegmatis growth (M.smegmatis mc^2155): 32% inhibition at 750 µg/ml

O=C(Nc1cccc([N+](=O)[O-])c1)c1cc2ccccc2cc1O [Compound 10, Naphtazol B]
MIC99 for M.tuberculosis (M.tuberculosis H37Rv): 750 µg/mL | inhibition of M.smegmatis growth (M.smegmatis mc^2155): No inhibition

CN1[C@@H]2CC[C@H]1CC(OC(c1ccccc1)c1ccccc1)C2.CS(=O)(=O)O (stereo partly drawn) [Compound 11, 3-benzhydryloxy-8-methyl-8-azab icyclo [3.2.1]octane;methanesulfonic acid]
MIC99 for M.tuberculosis (M.tuberculosis H37Rv): 250 µg/mL | MIC99 for M.smegmatis (M.smegmatis mc^2155): 125 µg/mL

O=C(Nc1cccc([N+](=O)[O-])c1)c1ccc2ccccc2c1O [Compound 12, 1-hydroxy-(3-nitrophenyl) naphthalene-2-carboxamide]
IC50 [1]: 100 µ/ml | percent inhibition of MtTPS activity [1]: greater than 20% | inhibition of M.smegmatis growth (M.smegmatis mc^2155): 45% inhibition at 750 µg/ml

c1ccc(CSc2nnc3c4ccccc4c4ccccc4c3n2)cc1 [Compound 33, 3-benzylsulfanyl phenanthro[9,10-e][1,2,4]triazine]
IC50 [1]: 100 µ/ml | percent inhibition of MtTPS activity [1]: greater than 20% | MIC99 for M.tuberculosis (M.tuberculosis H37Rv): 162.5 µg/mL | MIC99 for M.smegmatis (M.smegmatis mc^2155): 150 µg/mL

CCN(CC)c1nc(Cl)nc(Nc2ccc3cc(-c4ccccc4)c(=O)oc3c2)n1 [Compound 35, Coumarin, 7-[[4-chloro-6-(diethylamino)-s-triazin-2-yl]amino]-3-phenyl-]
MIC99 (M.tuberculosis H37Rv): 125 µg/mL (≈ 296 µM) | IC50 [2]: > 237 µM | inhibition at 100 µg/mL [2]: > 20% | inhibition of M.smegmatis growth (M.smegmatis mc^2155): No inhibition

M.tuberculosis thiamin phosphate synthase (MtTPS) (Mycobacterium tuberculosis H37Rv)
Km (Cc1ncsc1CCO): 14 µM
